Here are results for 1 compound from PMC9229894, “In Silico, In Vitro, and Pharmacokinetic Studies of UBMC-4, a Potential Novel Compound for Treating against Trypanosoma cruzi” (Pathogens, 2022).

The structures appear in SMILES notation. “And” between values parts separate entries of the source, which are not always exact repeats. Equal entries are not always repeated. “Also recorded” adds a separate entry of the source.

The test system of one data set is T. cruzi epimastigotes. Kind of data set: Intracellular ROS production in epimastigotes (H2DCFDA). It counts as cell-based, Trypanosoma cruzi. To be noted: 10 µM, 24 h. The procedure:
A total of 1.4 × 10^6 epimastigotes grown under normal and stress nutritional conditions were treated with 10 µM UBMC-4 for 24 h and the intracellular ROS concentration was determined by fluorometric testing with the diacetate 2′,7′-dichlorodihydrofluorescein (H2DCFDA) probe at 0.2 µg/mL. As controls, cell cultures both treated with no probe as well as only labeled with H2DCFDA were performed to determine baseline fluorescence. A ROS-production positive control was set up by challenging parasites with […] rotenone (a ROS inducer) for 1 h prior to labeling and reading. After the treatment, parasites were washed and resuspended in 100 µL of the H2DCFDA-containing solution, transferred to 96-well plates protected from the light, and then incubated for 1 h at 37 °C. The test readout was collected using an ELISA plate reader at an excitation wavelength of 495 nm and emission wavelength of 527 nm, respectively. Each treatment was performed in triplicate, and data were reported in arbitrary units of fluorescence.

A short description of data set [1]: In vivo pharmacokinetic analysis of UBMC-4 in mice (HPLC plasma, two-compartment model). The arrangement: species or system Balb/c Mus musculus. On the procedure:
A total of 30 mice (15 males and 15 females) was randomly selected and divided into two groups: one group received a 200 µL oral single dose of UBMC-4 at a concentration of 60 mM (equivalent to a 200 mg/kg dose), and a control group receiving 200 µL of vehicle (Kolliphor and water without UBMC-4) via oral route. Considering that the average weight of the mice was 25 g, the total amount of UBMC-4 administered was 5 mg. The compound was only administered orally, it was not used intravenously since one of the primary objectives was to evaluate its gastrointestinal absorption. […] In this way, we wanted to find the highest potential plasma concentrations before inducing toxicity. Blood samples were collected in EDTA tubes via intracardiac puncture performed under general anesthesia in both groups at sampling time points as follows: 0 h, 1 h, 2 h, 3 h, 5 h, 6 h, 8 h, and 24 h. Samples were then centrifuged at 1800 rpm at 4 °C for 10 min to collect plasma. For each sampling time point, 100 µL of mouse plasma were collected and 200 µL of acetone were added. This mixture was vortexed for 30 s and centrifuged at 10,000 rpm at 4 °C for 20 min. Supernatants were poured into vials for HPLC analysis following the method described below.
The amount of UBMC-4 in plasma samples was quantified by a HPLC method using a Hitachi Chromaster HPLC System with a Knauer C18 Column as follows: λ: 300 nm; temperature: 40 °C; run time: 13 min at a flow rate of 1.0 mL/min. A gradient of acetonitrile:water:methanol in a 30:40:30 ratio was used as mobile phase from baseline to minute 6, a 20:0:80 ratio from minute 7 to minute 10, and again a 30:40:30 ratio from minute 11. Linearity of the method was calculated for the 0.5 µg/mL to 20 µg/mL concentration range, with a r^2 (correlation coefficient) of 0.969 for the relationship between the area under the curve and UBMC-4 absorption at 300 nm.
The ADAPT 5 software was used to determine the most suitable model for the UBMC-4 plasma concentration profile. The maximum likelihood estimation method was used for modeling. After conducting trials where various models were used, the best one was chosen based on the -Log-Likelihood (-LL) and Akaike information criterion (AIC) values. Consequently, by comparing models, the one producing lower values amongst these two parameters would be the one that best fit the plasma concentration data and the most useful for pharmacokinetic studies. Moreover, based on the R-square value (r^2), we assessed the correlation between the values predicted by the model and those observed in UBMC-4 plasma concentration. The selected model was therefore used to elaborate simulations using different administration regimens and thus predicting what would happen with UBMC-4 concentration levels upon administration of repeated dosage. This simulation was also performed using ADAPT 5 [36, 66, 67]

Data set [2] can be described thus: Cytotoxicity, MTT method, huMDM. It counts as cell-based. The settings on record: human, monocyte-derived macrophages (huMDM), read-out: LC50 median lethal concentration huMDM. On the procedure: Cytotoxicity of UBMC-4 was tested in HepG2, CaCo2, and huMDM cell lines according to the effect on cell growth determined by the MTT microenzimatic method, as described by others. Briefly, 2.0 × 10^4 U-937 and huMDM or 2.5 × 10^4 HepG2 and CaCo2 cells were dispensed in 200 µL into each well of a 96-well tissue culture plate containing the corresponding culture medium. Then, 100 µL/well of each compound at a concentration of […] were added and plates were incubated at 37 °C, 5% CO2. After 72 h of incubation, 20 μL of MTT (Sigma-Aldrich, St Louis, MO, USA) were added to each well and plates were incubated for 3 h at 37 °C, 5% CO2. […] The concentration of formazan was determined at 570 nm in a spectrophotometer (Varioskan Flash Multimode Reader, Thermo Scientific, Waltham, MA, USA). […] Cytotoxicity was determined according to the percentages of viability and cell growth inhibition obtained for each compound, bz, doxorubicin, or medium alone. Non-specific absorbance was corrected by subtracting the OD of the blank (culture medium). Percentages of mortality were calculated using equation, as follows: % mortality = 100 − [(O.D. of treated cells)/(O.D. of non-treated cells)] × 100. The half maximal effective concentration (EC50) was calculated by the linear regression model Probit using Graphpad Prism software.
(In general: Tetrazolium dyes change colour on reduction, which living cells bring about.)

Data set [3] is described as follows: Toxicity / tolerability in mice. It counts as in vivo.
Where [4] appears, read: two-compartment model, 200 mg/kg oral.

In the case of `Oc1ccc(-c2nc(-c3ccc4sc5ccccc5c4c3)c(-c3ccccc3)[nH]2)cc1` [UBMC-4, 4-(4-dibenzo-[b,d]-thien-2-yl-5-phenyl-1H-imidazol-2-yl)phenol], the “intracellular ROS concentration, treated vs untreated” value with T. cruzi epimastigotes (normal nutritional conditions) is “No significant differences”. Further, the “intracellular ROS concentration compared to untreated parasites” value in the data set on T. cruzi epimastigotes (nutritional stress) is on record as “twofold ROS concentration”. For the same compound, in data set [1] (200 mg/kg oral single dose), the “time of highest plasma concentration” value is 3 h. In addition, the oral absorption entry in data set [1] (200 mg/kg oral, Kolliphor RH40 formulation, 200 mg/kg) is recorded as “well absorbed; also recorded: absorbed orally”. The compound also displayed a concentration at 0 h in data set [1] (both sexes, Balb/c, mouse, plasma, 200 mg/kg oral single dose, 0 h) of 0 ng/mL. The concentration at 1 h in data set [1] (both sexes, Balb/c, mouse, plasma, 200 mg/kg oral single dose, 1 h) is 2800 ng/mL and 6.69 µM. This compound also registered a concentration at 2 h in data set [1] (both sexes, Balb/c, mouse, plasma, 200 mg/kg oral single dose, 2 h) of 3200 ng/mL. Besides, the concentration at 3 h in data set [1] (both sexes, Balb/c, mouse, plasma, 200 mg/kg oral single dose, 3 h) is 4200 ng/mL. In data set [1] (both sexes, Balb/c, mouse, plasma, 200 mg/kg oral single dose, 5 h), this compound showed a concentration at 5 h of 3800 ng/mL. The concentration at 6 h in data set [1] (both sexes, Balb/c, mouse, plasma, 200 mg/kg oral single dose, 6 h) was 3700 ng/mL. In data set [1] (both sexes, Balb/c, mouse, plasma, 200 mg/kg oral single dose, 8 h), this compound gave a concentration at 8 h of 3600 ng/mL. Also, in data set [1] (both sexes, Balb/c, mouse, plasma, 200 mg/kg oral single dose, 24 h), the concentration at 24 h is 2400 ng/mL and 5.74 µM. For the same compound, the Cmax in data set [1] (both sexes, Balb/c, mouse, plasma, po, 200 mg/kg, 200 mg/kg oral single dose, read-out: highest plasma concentration (Cmax)) is 4200 ng/mL and 10 µM. Also, the half-life in data set [1] (both sexes, Balb/c, mouse, plasma, two-compartment model, 200 mg/kg oral, read-out: estimated half-life (t1/2) (converted)) was 1340 min. In addition, in data set [1] (setting [4]), the CLd/F intercompartmental clearance amounted to 0.2514 L/h, the CLt/F total clearance is listed as 0.0357 L/h, the Ka absorption constant came to 0.6213 h⁻¹ and the Vc/F central volume turned out to be 0.6930 L. In data set [1] (setting [4]), this compound had a Vp/F peripheral volume of 0.4360 L. Besides, the CC50 at 72 h in data set [2] is over 40 µM. Also, the “tolerability in preliminary toxicity study” value in data set [3] (200 mg/kg administered once and 100 mg/kg every 24 h for 30 days) is “significant tolerability”. The acute toxicity result in data set [3] (mice of the pharmacokinetic assay, 200 mg/kg oral single dose) is recorded as “did not exhibit acute toxicity”. Further, the death of mice entry in data set [3] (mouse, in vivo, po, 200 mg/kg) is reported as “did not cause death to any of the mice”.
